Results taken from patent US7250410B2, “Cyclic nucleotide phosphodiesterase inhibitors, preparation and uses thereof” (Via Pharmaceuticals, Inc., priority 2001, dated 2007).
Several values for one entry are separate records, joined by “and”; a condition that tells them apart may be missing. Equal entries are not always repeated.

molecular target: PDE4; test: Inhibition of PDE4, radioenzymatic phosphodiesterase assay; assay type: biochemical, bovine; conditions: Table 1, formula (III); 1 μM cyclic AMP
Experimental: A 3 g segment of bovine aortic media cut into pieces with scissors was homogenized with an ultra-turrax then a potter glass/glass homogenizer in 7 volumes by weight of buffer A containing a protease inhibitor cocktail (20 mM Tris-HCl, 0.25 M saccharose, 2 mM magnesium acetate, 1 mM dithiothreitol, 5 mM EGTA, 2000 U/ml aprotinin, 10 mg/l leupeptin and 10 mg/l soya trypsic inhibitor). The homogenizate was centrifuged at 105,000 g for 1 hour. […] The column was washed until there was no detectable absorption at 280 nm, then eluted with a linear gradient of NaCl (0–0.5 M) in buffer B. 3-ml fractions were collected and enzyme activity was determined under the conditions described hereinafter to localize the different enzymes PDE1, PDE3, PDE4 and PDE5, which were aliquoted and frozen at −80° C.
The nucleoside formed was separated from the nucleotides by anion exchange chromatography. Nucleoside radioactivity was determined by liquid scintillation counting.

| Molecule | IC50 [µM] |
| --- | --- |
| COc1cc2c(cc1OC)C(c1ccc(-c3ccc(Cl)cc3)cc1)=NN(C)C(=O)C2 [IIIat, 1-[4-(4-chlorophenyl)phenyl]-7,8-dimethoxy-3-methyl-3,5-dihydro-4H-2,3-benzodiazepin-4-one] | 2.3 |
| COc1cc2c(cc1OC)C(c1ccc(-c3cc(C(F)(F)F)cc(C(F)(F)F)c3)cc1)=NN(C)C(=O)C2 [IIIaw, 1-{4-[3,5-bis-(trifluoromethyl)phenyl]phenyl}-7,8-dimethoxy-3-methyl-3,5-dihydro-4H-2,3-benzodiazepin-4-one] | 16 |
| COc1cc2c(cc1OC)C(c1ccc(-c3ccccc3OC)cc1)=NN(C)C(=O)C2 [IIIai, 7,8-dimethoxy-1-[4-(2-methoxyphenyl)phenyl]-3-methyl-3,5-dihydro-4H-2,3-benzodiazepin-4-one] | 1.8 |

same assay, conditions: Table 2, formula (XXII); compound at 10 μM

| Molecule | PDE4 percentage inhibition at 10 μM [%] |
| --- | --- |
| O=C1CN=C(c2ccc(Br)cc2)c2ccc(Br)cc2N1 [XXIIab, 8-bromo-5-(4-bromophenyl)-1,3-dihydro-2H-1,4-benzodiazepin-2-one] | 10 |
| COc1cc2c(cc1OC)C(c1ccccc1Br)=NCC(=O)N2 [XXIIal, 5-(2-bromophenyl)-7,8-dimethoxy-1,3-dihydro-2H-1,4-benzodiazepin-2-one] | 23.9 |
| COc1cc2c(cc1OC)C(c1ccccc1)=NC(C)C(=O)N2 (stereo not drawn) [XXIIaq, 7,8-dimethoxy-3-methyl-5-phenyl-1,3-dihydro-2H-1,4-benzodiazepin-2-one] | 26.2 |
| COc1cc2c(cc1OC)C(c1ccccc1)=N[C@@H](Cc1ccccc1)C(=O)N2 [XXIIau, (S)-3-benzyl-7,8-dimethoxy-5-phenyl-1,3-dihydro-2H-1,4-benzodiazepin-2-one] | 42.6 |

same assay, conditions: Table 3, formula (II); 1 μM cyclic AMP

| Molecule | IC50 |
| --- | --- |
| CCN1C(=O)C(Cc2ccccc2Br)N=C(c2ccccc2)c2cc(OC)c(OC)cc21 (stereo not drawn) [IIcc, 3-(2-bromobenzyl)-1-ethyl-7,8-dimethoxy-5-phenyl-1,3-dihydro-2H-1,4-benzodiazepin-2-one] | 4.97 µM |
| [(7,8-dimethoxy-1-ethyl-2-oxo-2,3-dihydro-1H-1,4-benzodiazepin-3-yl)benz-2-yl]carboxamide [IIci] | 1.45 µM |
| CCN1C(=O)C(Cc2cc(Cl)ccc2Cl)N=C(c2ccccc2)c2cc(OC)c(OC)cc21 (stereo not drawn) [IIdi, 3-(2,5-dichlorobenzyl)-7,8-dimethoxy-1-ethyl-5-phenyl-1,3-dihydro-2H-1,4-benzodiazepin-2-one] | 8.15 µM |
| CCN1C(=O)C(Cc2ccccc2C)N=C(c2ccccc2)c2cc(OC)c(OC)cc21 (stereo not drawn) [IIcz, 1-ethyl-7,8-dimethoxy-3-(2-methylbenzyl)-5-phenyl-1,3-dihydro-2H-1,4-benzodiazepin-2-one] | 4.4 µM |
| COc1cc2c(cc1OC)N(C)C(=O)CN=C2c1cccs1 [IIak, 7,8-dimethoxy-1-methyl-5-(2-thienyl)-1,3-dihydro-1,4-benzodiazepin-2-one] | 16 µM |
| CCOc1cc2c(cc1OC)C(c1ccccc1)=NC(Cc1ccccc1)C(=O)N2CC (stereo not drawn) [IIbb, 3-benzyl-8-ethoxy-1-ethyl-7-methoxy-5-phenyl-1,3-dihydro-2H-1,4-benzodiazepin-2-one] | 3.13 µM |
| CCOc1cc2c(cc1OC)C(c1ccccc1)=NC(Cc1cccc(C#N)c1)C(=O)N2C (stereo not drawn) [IIdf, 3-[(8-ethoxy-7-methoxy-1-methyl-2-oxo-5-phenyl-2,3-dihydro-1H-1,4-benzodiazepin-3-yl)methyl]benzonitrile] | 1.5 µM |
| CCN1C(=O)C(C(O)c2cccc(Br)c2)N=C(c2ccccc2)c2cc(OC)c(OC)cc21 (stereo not drawn) [IIch, 3-[(3-bromophenyl)(hydroxy)methyl]-1-ethyl-7,8-dimethoxy-5-phenyl-1,3-dihydro-2H-1,4-benzodiazepin-2-one] | 9.6 µM |
| CCN1C(=O)C(Cc2ccccc2CN)N=C(c2ccccc2)c2cc(OC)c(OC)cc21 (stereo not drawn) [IIcg, 3-(2-aminomethylbenzyl)-7,8-dimethoxy-1-ethyl-5-phenyl-1,3-dihydro-2H-1,4-benzodiazepin-2-one] | 6.7 µM |
| CCN1C(=O)C(Cc2ccccc2C#N)N=C(c2ccccc2)c2cc(OC)c(OC)cc21 (stereo not drawn) [IIce, 3-(2-cyanobenzyl)-7,8-dimethoxy-1-ethyl-5-phenyl-1,3-dihydro-2H-1,4-benzodiazepin-2-one] | 0.88 µM and 1.4 µM |

same assay, conditions: Table 3, formula (II); compound at 10 μM

| Molecule | PDE4 percentage inhibition at 10 μM [%] |
| --- | --- |
| COc1cc2c(cc1OC)N(Cc1ccccc1)C(=O)CN=C2c1ccccc1 [IIbc, 1-benzyl-7,8-dimethoxy-5-phenyl-1,3-dihydro-2H-1,4-benzodiazepin-2-one] | 27.2 |
| CCN1C(=O)C(Cc2ccc(Br)cc2)N=C(c2ccccc2)c2cc(OC)c(OC)cc21 (stereo not drawn) [IIcd, 3-(4-bromobenzyl)-1-ethyl-7,8-dimethoxy-5-phenyl-1,3-dihydro-2H-1,4-benzodiazepin-2-one] | 20.1 |
| CCN1C(=O)C(C/C=C/c2ccccc2)N=C(c2ccccc2)c2cc(OC)c(OC)cc21 (stereo not drawn) [IIbz, 7,8-dimethoxy-1-ethyl-3-(E-3-phenylpropen-2yl)-5-phenyl-1,3-dihydro-2H-1,4-benzodiazepin-2-one] | 42.3 |
| C#CCC1N=C(c2ccccc2)c2cc(OC)c(OC)cc2N(CC)C1=O (stereo not drawn) [IIbt, 1-ethyl-7,8-dimethoxy-5-phenyl-3-prop-2-ynyl-1,3-dihydro-2H-1,4-benzodiazepin-2-one] | 38.4 |
| COc1cc2c(cc1OC)N(C)C(=O)CN=C2c1ccncc1 [IIae, 7,8-dimethoxy-1-methyl-5-(4-pyridyl)-1,3-dihydro-2H-1,4-benzodiazepin-2-one] | 3.4 |
| COc1cc2c(cc1OC)N(C)C(=O)CN=C2CCc1ccccc1 [IIaz, 7,8-dimethoxy-1-methyl-5-(2-phenylethyl)-1,3-dihydro-2H-1,4-benzodiazepin-2-one] | 6.9 |
| COc1cc2c(cc1OC)C(c1ccccc1)=NC(c1ccccc1CNC(C)=O)C(=O)N2 (stereo not drawn) [IIcf, N-[2-(7,8-dimethoxy-2-oxo-5-phenyl-2,3-dihydro-1H-1,4-benzodiazepin-3-yl)benzyl]acetamide] | 21 |
| COc1cc2c(cc1OC)N(C)C(=O)CN=C2c1ccccc1OC [IIam, 7,8-dimethoxy-5-(2-methoxyphenyl)-1-methyl-1,3-dihydro-1,4-benzodiazepin-2-one] | 20 |
| COc1cc2c(cc1OC)N(C)C(=O)CN=C2c1ccc(N(C)C)cc1 [IIaj, 7,8-dimethoxy-5-(4-N,N-dimethylaminophenyl)-1-methyl-1,3-dihydro-2H-1,4-benzodiazepin-2-one] | 7.9 |
| CCN1C(=O)CN=C(c2ccccc2)c2cc(OC)c(OC)cc21 [IIbd, 1-ethyl-7,8-dimethoxy-5-phenyl-1,3-dihydro-2H-1,4-benzodiazepin-2-one] | 34.3 |
| CCN1C(=O)C(Cc2cccc(CN)c2)N=C(c2ccccc2)c2cc(OC)c(OC)cc21 (stereo not drawn) [IIct, 3-[3-(aminomethyl)benzyl]-1-ethyl-7,8-dimethoxy-5-phenyl-1,3-dihydro-2H-1,4-benzodiazepin-2-one] | 18 |
| COc1cc2c(cc1OC)N(C)C(=O)CN=C2c1ccc(C(C)=O)cc1 [IIai, 5-(4-acetylphenyl)-7,8-dimethoxy-1-methyl-1,3-dihydro-1,4-benzodiazepin-2-one] | 39 |

same assay, conditions: Table 3, formula (II); compound at 10 μM; 10 µM

| Molecule | PDE4 percentage inhibition at 10 μM [%] |
| --- | --- |
| CCN1C(=O)C(Cc2ccc(Cl)cc2)N=C(c2ccccc2)c2cc(OC)c(OC)cc21 (stereo not drawn) [IIbq, 3-(4-chlorobenzyl)-1-ethyl-7,8-dimethoxy-5-phenyl-1,3-dihydro-2H-1,4-benzodiazepin-2-one] | 33.8 |
